Measured values: paper PMC4414724 (Chemico-biological interactions, 2015)
Read-outs that look alike come from different tables or passages of the source.

Legend:
[1] = target: rat liver alcohol dehydrogenase (Rattus norvegicus, UniProt P06757); assay: Oxidation of alcohols by isolated rat liver alcohol dehydrogenase
horse liver ADH1E = horse liver ADH1E (Equus caballus, UniProt P00327); assay: Reactions of horse liver ADH1E with 1,5-pentanediol and 5-hydroxypentanal; format: biochemical; settings: for concentration formed in dismutation reaction: 5 mM 5-hydroxypentanal, 1 mM NAD+, 0.01 mg/mL ADH, at 12 h, GC
horse liver ADH1E, sequence (P00327 2-375 limits assumed): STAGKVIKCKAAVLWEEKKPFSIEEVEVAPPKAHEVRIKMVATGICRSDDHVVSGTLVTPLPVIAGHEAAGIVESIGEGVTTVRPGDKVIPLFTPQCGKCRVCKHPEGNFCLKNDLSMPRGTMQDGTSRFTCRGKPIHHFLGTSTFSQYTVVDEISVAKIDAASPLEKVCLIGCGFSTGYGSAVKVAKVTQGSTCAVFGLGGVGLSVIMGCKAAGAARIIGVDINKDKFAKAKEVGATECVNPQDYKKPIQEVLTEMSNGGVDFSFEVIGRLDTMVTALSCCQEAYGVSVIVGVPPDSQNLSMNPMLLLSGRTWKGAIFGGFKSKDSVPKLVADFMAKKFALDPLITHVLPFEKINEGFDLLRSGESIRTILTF

ethanol elimination = settings: cited from earlier work
methanol metabolism = settings: cited from earlier work
rat liver ADH = settings: read-out: in vitro Ki (competitive against alcohol); cited from earlier work
cytochrome P-450 = settings: read-out: in vitro Ki; cited from earlier work
ADH3 = ADH3 (UniProt P12711); settings: cited from earlier work
[2] = test system: microsomal ethanol oxidizing system (NADPH-dependent cytochrome P-450 enzymes); settings: cited from earlier work
[3] = humans; cited from earlier work
[4] = cited from earlier work
rat liver ADH1 = settings: cited from earlier work
[5] = data for zero order elimination, rats without inhibitors
[6] = calculated from kinetic constants with Michaelis-Menten equation for 5 mM alcohol
[7] = from inhibition by 1 mmole/kg 4-methylpyrazole
[8] = observed rate without inhibitors minus the rate with 1 mmole/kg 4-methylpyrazole
[9] = primary alcohols and diols, doses of 5–20 mmole/kg
[10] = 83 mM potassium phosphate, 40 mM KCl, pH 7.3, 37 °C, 0.5 mM NAD+
[11] = rats fasted 24 h, dose mmole/kg: 2-propanol 17, 2-propanol-d7 15
[12] = secondary alcohols, doses of 5–10 mmole/kg
[13] = uninhibited rate at higher 4-methylpyrazole and isobutyramide

rat liver alcohol dehydrogenase, sequence (P06757 2-376 limits assumed): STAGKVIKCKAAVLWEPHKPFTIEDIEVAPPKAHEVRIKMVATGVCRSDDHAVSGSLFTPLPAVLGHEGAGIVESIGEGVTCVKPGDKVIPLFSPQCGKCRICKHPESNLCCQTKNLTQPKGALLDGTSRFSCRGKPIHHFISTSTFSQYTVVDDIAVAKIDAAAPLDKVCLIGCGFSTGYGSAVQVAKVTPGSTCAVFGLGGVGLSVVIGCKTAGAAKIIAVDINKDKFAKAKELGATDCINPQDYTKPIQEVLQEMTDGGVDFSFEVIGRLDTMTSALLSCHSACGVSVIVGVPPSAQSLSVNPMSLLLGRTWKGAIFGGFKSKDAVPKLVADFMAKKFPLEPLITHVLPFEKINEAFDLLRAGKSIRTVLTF

SMILES: OCCO [1,2-Ethanediol, 1,2-ethanediol]
- r (fraction of body weight accessible to the alcohol) (rat, in vivo, ip): 0.72 ± 0.08 mL/g
- V rel (Vmax relative to ethanol as substrate) ([1]; pH 7.3): 0.99 ± 0.25
- Vrel/K ([1]; pH 7.3): 0.0013

SMILES: CC(O)CCO (stereo not drawn) [1,3-Butanediol, 1,3-butanediol]
- in vivo rate of elimination [5]: 5.0 ± 0.3 mmol/kg/h
- Rate due to ADH (male, rat, in vivo): 4.1
- r (fraction of body weight accessible to the alcohol) (male, rat, in vivo, ip): 0.82 ± 0.05 mL/g
- %ADH (estimated percentage of elimination due to ADH) (rat, in vivo): 82%
- in vitro v rel [1, 6]: 0.44

SMILES: OCCCO [1,3-Propanediol, 1,3-propanediol]
- in vivo rate of elimination [5]: 2.7 ± 0.8 mmol/kg/h
- %ADH (estimated percentage of elimination due to ADH) [7]: 63%
- Rate due to ADH [8]: 1.7
- kinetics of elimination in rats (order) [9]: zero-order kinetics
- Km [1, 10]: 24 ± 2 mM
- V rel (Vmax relative to ethanol as substrate) [1, 10]: 0.75 ± 0.04
- in vitro v rel [1, 6]: 0.13
- Vrel/K ([1]; pH 7.3, 37 °C, 0.5 mM NAD+): 0.031

SMILES: OCCCCO [1,4-Butanediol, 1,4-butanediol]
- Rate due to ADH (male, rat, in vivo): 5.8
- in vivo rate of elimination (male, rat, in vivo): 6.7 ± 0.1 mmol/kg/h
- r (fraction of body weight accessible to the alcohol) (male, rat, in vivo, ip): 1.3 ± 0.2 mL/g
- %ADH (estimated percentage of elimination due to ADH) (rat, in vivo): 86%
- kinetics of elimination in rats (order) (rat, in vivo): zero-order kinetics
- in vitro v rel [1]: 0.52
- V rel (Vmax relative to ethanol as substrate) ([1]; pH 7.3): 1.5 ± 0.3
- Vrel/K ([1]; pH 7.3): 0.16

SMILES: OCCCCCO [1,5-Pentanediol, 1,5-pentanediol]
- Vmax relative to the activity on ethanol (horse liver ADH1E): 1.1
- concentration formed in dismutation reaction (horse liver ADH1E): ~ 2 mM
- kinetics of elimination in rats (order) [9]: zero-order kinetics
- V rel (Vmax relative to ethanol as substrate) [1, 10]: 3.6 ± 1.3
- Vrel/K ([1]; pH 7.3, 37 °C, 0.5 mM NAD+): 1.0

SMILES: CCCCO [1-Butanol, 1-butanol]
- %ADH (estimated percentage of elimination due to ADH) [7]: 56%
- in vivo rate of elimination (rat, in vivo): 3.2 ± 0.4 mmol/kg/h
- Km [1, 10]: 0.14 ± 0.03 mM
- V rel (Vmax relative to ethanol as substrate) [1, 10]: 1.3 ± 0.1
- in vitro v rel [1, 6]: 1.3
- Vrel/K ([1]; pH 7.3, 37 °C, 0.5 mM NAD+): 9.3

SMILES: CCCO [1-Propanol, 1-propanol]
- %ADH (estimated percentage of elimination due to ADH) [7]: 81%
- Rate due to ADH (rat, in vivo): 4.3
- in vivo rate of elimination (rat, in vivo): 5.3 ± 0.5 mmol/kg/h
- kinetics of elimination in rats (order) (rat, in vivo): zero-order kinetics
- r (fraction of body weight accessible to the alcohol) (rat, in vivo, ip): 0.67 ± 0.09 mL/g
- Km [1, 10]: 0.22 ± 0.03 mM
- V rel (Vmax relative to ethanol as substrate) [1, 10]: 0.95 ± 0.07
- in vitro v rel [1, 6]: 0.91
- Vrel/K ([1]; pH 7.3, 37 °C, 0.5 mM NAD+): 4.3

SMILES: CCC(C)O (stereo not drawn) [2-Butanol, 2-butanol]
- %ADH (estimated percentage of elimination due to ADH) [7]: 68%
- Rate due to ADH (rat, in vivo): 1.7
- in vivo rate of elimination (rat, in vivo): 2.5 ± 0.4 mmol/kg/h
- kinetics of elimination in rats (order) (rat, in vivo): first order kinetics
- 10^4 k1 (first order, alcohol to ketone) (rat, in vivo, ip): 112 ± 17 min^−1
- 10^4 k2 (first order, elimination of ketone) (rat, in vivo, ip): 37 ± 4 min^−1
- k2 (zero order, elimination of ketone) (rat, in vivo, ip): 1.1 ± 0.2 mmol/kg/h
- r (rat, in vivo, ip): 0.74 ± 0.08 mL/g
- Km [1, 10]: 12 ± 6 mM
- V rel (Vmax relative to ethanol as substrate) [1, 10]: 0.48 ± 0.03
- in vitro v rel [1, 6]: 0.14
- Vrel/K ([1]; pH 7.3, 37 °C, 0.5 mM NAD+): 0.04

SMILES: CCC(C)=O [2-Butanone]
- 10^4 k2 (first order, elimination of ketone) (rat, in vivo, ip): 31 ± 2 min^−1
- k2 (zero order, elimination of ketone) (rat, in vivo, ip): 1.3 mmol/kg/h
- r (rat, in vivo, ip): 0.81 mL/g

SMILES: CC(C)CO [2-Methyl-1-propanol, 2-methyl-1-propanol]
- %ADH (estimated percentage of elimination due to ADH) [7]: 66%
- in vivo rate of elimination (rat, in vivo): 3.8 ± 0.5 mmol/kg/h
- Km [1, 10]: 0.19 ± 0.04 mM
- V rel (Vmax relative to ethanol as substrate) [1, 10]: 0.80 ± 0.04
- in vitro v rel [1, 6]: 0.77
- Vrel/K ([1]; pH 7.3, 37 °C, 0.5 mM NAD+): 4.2

SMILES: CC(C)O [2-Propanol, 2-propanol]
- inhibition of the rate of elimination (by 1 mmole/kg of 4-methylpyrazole): 55%
- k2 (zero order, elimination of ketone) (fed rats, 10 mmole/kg isobutyramide (IBA), dose 10 mmole/kg): 0.44 mmol/kg/h
- %ADH (estimated percentage of elimination due to ADH) [7]: 55%
- 10^4 k1 (first order, alcohol to ketone) (rat, in vivo): 42 ± 4 min^−1
- 10^4 k2 (first order, elimination of ketone) (rat, in vivo): 14.3 ± 0.6 min^−1
- Km (rat, in vivo): 58 ± 20 mM
- Vmax, Michaelis-Menten fit of elimination in vivo (rat, in vivo): 0.38 ± 0.10 mM/min
- r (rat, in vivo): 0.75 ± 0.01 mL/g
- k2 (zero order, elimination of ketone) [11]: 0.64 ± 0.02 mmol/kg/h
- V rel (Vmax relative to ethanol as substrate) [1, 10]: 0.40 ± 0.02
- Km ([1]; 83 mM potassium phosphate, 40 mM KCl, pH 7.3, 37 °C, 0.5 mM NAD+, listed as 2-propanol): 36 ± 7 mM
- in vitro v rel [1, 6]: 0.049
- Vrel/K ([1]; pH 7.3, 37 °C, 0.5 mM NAD+): 0.011

SMILES: CC(C)O [2-Propanol-d7, 2-propanol-d7]
- Km ([1]; 83 mM potassium phosphate, 40 mM KCl, pH 7.3, 37 °C, 0.5 mM NAD+, listed as 2-propanol-d7): 83 ± 15 mM

SMILES: [2H]C([2H])([2H])C([2H])(O)C([2H])([2H])[2H] [2-Propanol-d7, 2-propanol-d7]
- 10^4 k1 (first order, alcohol to ketone) (rat, in vivo): 18 ± 2 min^−1
- 10^4 k2 (first order, elimination of ketone) (rat, in vivo): 13 ± 2 min^−1
- k2 (zero order, elimination of ketone) (rat, in vivo): 0.44 ± 0.06 mmol/kg/h
- 10^4 k1 (first order, alcohol to ketone) (rat, in vivo, ip): 25 ± 2 min^−1
- 10^4 k2 (first order, elimination of ketone) (rat, in vivo, ip): 19 ± 4 min^−1
- k2 (zero order, elimination of ketone) (rat, in vivo, ip): 0.59 ± 0.08 mmol/kg/h
- r [11]: 0.70 ± 0.03 mL/g
- kinetics of elimination in rats (order) [12]: first order kinetics
- V rel (Vmax relative to ethanol as substrate) [1, 10]: 0.20 ± 0.02
- in vitro v rel [1, 6]: 0.011
- Vrel/K ([1]; pH 7.3, 37 °C, 0.5 mM NAD+): 0.0024

SMILES: Nc1nc[nH]n1 [3-Aminotriazole, 3-Amino-1,2,4-triazole]
- inhibition of ethanol metabolism in rats (ethanol elimination): ~ 10%
- inhibition of methanol metabolism (methanol metabolism): ~ 35%

SMILES: CC(C)CCO [3-Methyl-1-butanol, 3-methyl-1-butanol]
- %ADH (estimated percentage of elimination due to ADH) [7]: 61%
- in vivo rate of elimination (male, Sprague-Dawley, rat, in vivo): 4.6 ± 0.8 mmol/kg/h
- V rel (Vmax relative to ethanol as substrate) [1, 10]: 0.54 ± 0.02
- in vitro v rel [1, 6]: 0.53
- Vrel/K ([1]; pH 7.3): 13

SMILES: CCC(O)CC [3-Pentanol, 3-pentanol]
- %ADH (estimated percentage of elimination due to ADH) [7]: 90%
- Rate due to ADH [8]: 3.6
- kinetics of elimination in rats (order) [12]: first order kinetics
- V rel (Vmax relative to ethanol as substrate) [1, 10]: 0.69 ± 0.03
- in vitro v rel [1, 6]: 0.35
- Vrel/K ([1]; pH 7.3, 37 °C, 0.5 mM NAD+): 0.14

SMILES: Cc1cn[nH]c1 [4-methylpyrazole]
- Ki (rat liver ADH): 0.00011 mM
- effective, in vivo, competitive Ki (ethanol elimination; in the rat): 1.4 µmol/kg
- inhibition of elimination of ethanol (ethanol elimination; inhibitor dose 1 mmole/kg, ethanol 20 mmole/kg): 87%
- Ki (cytochrome P-450): 5.7 mM

SMILES: OCc1ccccc1 [Benzyl alcohol, benzyl alcohol]
- Ki [1]: 27 mM
- V rel (Vmax relative to ethanol as substrate) [1, 10]: 0.47 ± 0.03
- Vrel/K ([1]; pH 7.3, 37 °C, 0.5 mM NAD+): 13

SMILES: OC1CCCCC1 [Cyclohexanol, cyclohexanol]
- %ADH (estimated percentage of elimination due to ADH) [7]: 74%
- Rate due to ADH (male, rat, in vivo): 3.2
- in vivo rate of elimination (male, rat, in vivo): 4.3 ± 1.5 mmol/kg/h
- 10^4 k1 (first order, alcohol to ketone) (male, rat, in vivo, ip): 229 ± 70 min^−1
- 10^4 k2 (first order, elimination of ketone) (male, rat, in vivo, ip): 50 ± 6 min^−1
- r (male, rat, in vivo, ip): 0.75 ± 0.21 mL/g
- in vitro v rel [1, 6]: 0.90

SMILES: O=C1CCCCC1 [Cyclohexanone]
- 10^4 k1 (first order, alcohol to ketone) (male, rat, in vivo, ip): 176 ± 13 min^−1
- 10^4 k2 (first order, elimination of ketone) (male, rat, in vivo, ip): 67 ± 3 min^−1
- r (male, rat, in vivo, ip): 0.53 mL/g

SMILES: OC1CCCC1 [Cyclopentanol, cyclopentanol]
- %ADH (estimated percentage of elimination due to ADH) [7]: 64%
- Rate due to ADH [8]: 3.0
- kinetics of elimination in rats (order) [12]: first order kinetics
- V rel (Vmax relative to ethanol as substrate) [1, 10]: 0.72 ± 0.04
- in vitro v rel [1, 6]: 0.68
- Vrel/K ([1]; pH 7.3, 37 °C, 0.5 mM NAD+): 2.2

SMILES: CCO [Ethanol, ethanol]
- %ADH (estimated percentage of elimination due to ADH) [7]: 89%
- in vivo rate of elimination (rat, in vivo): 7.9 ± 1.0 mmol/kg/h
- activity of ADH3 (ADH3): no detectable activity
- Km [2]: 9.6 mM
- possible contribution to the rate of ethanol metabolism [2]: 20–25%
- rate of elimination [3]: about 2.2 mmol/kg•h
- rate of elimination ([4]; fed rats): about 8 mmol/kg•h
- Km of inhibitor-insensitive elimination [4, 13]: 21 mmol/kg
- Vmax of inhibitor-insensitive elimination [4, 13]: 2.1 mmol/kg/h
- Km [1, 10]: 0.64 ± 0.22 mM
- V rel (Vmax relative to ethanol as substrate) [1, 10]: (1.0)
- in vitro v rel [1, 6]: 0.88
- Vrel/K ([1]; pH 7.3, 37 °C, 0.5 mM NAD+): 1.6

SMILES: CO [Methanol]
- Rate (zero-order elimination) (fed rat, MP+AT, methanol 10 mmole/kg i.p.): 0.41 mmol/kg/h
- time required to eliminate the dose (rat, in vivo): 15 h
- Rate (zero-order elimination) (rat, in vivo, ip): 0.56 ± 0.01 mmol/kg/h
- Vmax relative to ethanol (rat liver ADH1): 0.10
- Km [2]: 22 mM

SMILES: CC(C)C(N)=O [isobutyramide]
- in vivo Ki (uncompetitive) (ethanol elimination): 1 mmol/kg

SMILES: c1cn[nH]c1 [pyrazole, reference compound]
- Inhibition of the ADH reactions ([1]; 10 mM pyrazole): almost totally inhibited

SMILES: O=C1CCCCO1 [δ-valerolactone]
- concentration formed in dismutation reaction (horse liver ADH1E): ~ 2 mM
